Experimental data reported in the NIST ThermoML archive (doi:10.1016/j.jct.2015.12.017).
± gives the expanded uncertainty stated by the source.

Test: molar heat capacity at constant pressure
Settings: 101.33 kPa

O=P([O-])([O-])[O-].[Co+2].[Cs+] [cesium cobalt(II) phosphate]
Settings	molar heat capacity at constant pressure [J/K/mol]
304.98 K, Crystal 4, Vacuum adiabatic calorimetry	136.11 ± 0.5
305.47 K, Crystal 4, Vacuum adiabatic calorimetry	136.19 ± 0.5
306.97 K, Crystal 4, Vacuum adiabatic calorimetry	137.44 ± 0.5
307.51 K, Crystal 4, Vacuum adiabatic calorimetry	137.6 ± 0.5
308.95 K, Crystal 4, Vacuum adiabatic calorimetry	138.69 ± 0.5
309.32 K, Crystal 4, Vacuum adiabatic calorimetry	139.1 ± 0.5
310 K, Crystal 4, Vacuum adiabatic calorimetry	136.94 ± 0.5
310.91 K, Crystal 4, Vacuum adiabatic calorimetry	142.43 ± 0.5
311.46 K, Crystal 4, Vacuum adiabatic calorimetry	142.34 ± 0.5
312.84 K, Crystal 4, Vacuum adiabatic calorimetry	144.42 ± 0.5
313.4 K, Crystal 3, Vacuum adiabatic calorimetry	139.93 ± 0.5
313.4 K, Crystal 4, Vacuum adiabatic calorimetry	137.85 ± 0.5
313.44 K, Crystal 3, Vacuum adiabatic calorimetry	144.34 ± 0.5
314.77 K, Crystal 3, Vacuum adiabatic calorimetry	143.84 ± 0.5
315.42 K, Crystal 3, Vacuum adiabatic calorimetry	144.09 ± 0.5
316.69 K, Crystal 3, Vacuum adiabatic calorimetry	142.51 ± 0.5
317.39 K, Crystal 3, Vacuum adiabatic calorimetry	143.18 ± 0.5
318.6 K, Crystal 3, Vacuum adiabatic calorimetry	141.68 ± 0.5
319.35 K, Crystal 3, Vacuum adiabatic calorimetry	142.51 ± 0.5
320 K, Crystal 3, Vacuum adiabatic calorimetry	142.34 ± 0.5
320.51 K, Crystal 3, Vacuum adiabatic calorimetry	142.01 ± 0.5
321.31 K, Crystal 3, Vacuum adiabatic calorimetry	142.84 ± 0.5
322.4 K, Crystal 3, Vacuum adiabatic calorimetry	142.76 ± 0.5
323.26 K, Crystal 3, Vacuum adiabatic calorimetry	143.42 ± 0.5
324.27 K, Crystal 3, Vacuum adiabatic calorimetry	143.42 ± 0.5
325.2 K, Crystal 3, Vacuum adiabatic calorimetry	144.09 ± 0.5
326.14 K, Crystal 3, Vacuum adiabatic calorimetry	144.09 ± 0.5
327.14 K, Crystal 3, Vacuum adiabatic calorimetry	144.59 ± 0.5
327.98 K, Crystal 3, Vacuum adiabatic calorimetry	144.75 ± 0.5
329.07 K, Crystal 3, Vacuum adiabatic calorimetry	145.09 ± 0.5
330 K, Crystal 3, Vacuum adiabatic calorimetry	145.34 ± 0.5
330.98 K, Crystal 3, Vacuum adiabatic calorimetry	145.59 ± 0.5
332.87 K, Crystal 3, Vacuum adiabatic calorimetry	146 ± 0.5
334.4 K, Crystal 3, Small sample (50 mg) DSC	146.33 ± 4.2
334.77 K, Crystal 3, Vacuum adiabatic calorimetry	146.58 ± 0.5
336.65 K, Crystal 3, Vacuum adiabatic calorimetry	147.08 ± 0.5
336.9 K, Crystal 3, Small sample (50 mg) DSC	147.17 ± 4.2
338.52 K, Crystal 3, Vacuum adiabatic calorimetry	147.5 ± 0.5
339.4 K, Crystal 3, Small sample (50 mg) DSC	148 ± 4.2
340 K, Crystal 3, Vacuum adiabatic calorimetry	147.91 ± 0.5
340.21 K, Crystal 3, Vacuum adiabatic calorimetry	148 ± 0.5
341.82 K, Crystal 3, Vacuum adiabatic calorimetry	148.41 ± 0.5
341.9 K, Crystal 3, Small sample (50 mg) DSC	148 ± 4.2
343.88 K, Crystal 3, Vacuum adiabatic calorimetry	149.08 ± 0.5
344.4 K, Crystal 3, Small sample (50 mg) DSC	148.83 ± 4.2
345.68 K, Crystal 3, Vacuum adiabatic calorimetry	149.58 ± 0.5
346.9 K, Crystal 3, Small sample (50 mg) DSC	149.66 ± 4.2
347.49 K, Crystal 3, Vacuum adiabatic calorimetry	150.08 ± 0.5
349.26 K, Crystal 3, Vacuum adiabatic calorimetry	150.49 ± 0.5
349.4 K, Crystal 3, Small sample (50 mg) DSC	150.49 ± 4.2
350 K, Crystal 3, Small sample (50 mg) DSC	150.41 ± 4.3
351.9 K, Crystal 3, Small sample (50 mg) DSC	151.32 ± 4.2
354.4 K, Crystal 3, Small sample (50 mg) DSC	151.32 ± 4.2
356.9 K, Crystal 3, Small sample (50 mg) DSC	152.15 ± 4.2
359.4 K, Crystal 3, Small sample (50 mg) DSC	152.99 ± 4.2
360 K, Crystal 3, Small sample (50 mg) DSC	152.74 ± 4.4
361.9 K, Crystal 3, Small sample (50 mg) DSC	152.99 ± 4.2
364.4 K, Crystal 3, Small sample (50 mg) DSC	152.99 ± 4.2
366.9 K, Crystal 3, Small sample (50 mg) DSC	153.82 ± 4.2
369.4 K, Crystal 3, Small sample (50 mg) DSC	154.65 ± 4.2
370 K, Crystal 3, Small sample (50 mg) DSC	154.82 ± 4.4
371.9 K, Crystal 3, Small sample (50 mg) DSC	155.48 ± 4.2
374.4 K, Crystal 3, Small sample (50 mg) DSC	155.48 ± 4.2
376.9 K, Crystal 3, Small sample (50 mg) DSC	156.31 ± 4.2
379.4 K, Crystal 3, Small sample (50 mg) DSC	156.31 ± 4.2
380 K, Crystal 3, Small sample (50 mg) DSC	156.73 ± 4.5
381.9 K, Crystal 3, Small sample (50 mg) DSC	157.14 ± 4.2
384.4 K, Crystal 3, Small sample (50 mg) DSC	157.14 ± 4.2
386.9 K, Crystal 3, Small sample (50 mg) DSC	157.97 ± 4.2
389.4 K, Crystal 3, Small sample (50 mg) DSC	157.97 ± 4.2
390 K, Crystal 3, Small sample (50 mg) DSC	158.47 ± 4.6
391.9 K, Crystal 3, Small sample (50 mg) DSC	158.81 ± 5
394.4 K, Crystal 3, Small sample (50 mg) DSC	159.64 ± 5
396.9 K, Crystal 3, Small sample (50 mg) DSC	159.64 ± 5
399.4 K, Crystal 3, Small sample (50 mg) DSC	160.47 ± 5
400 K, Crystal 3, Small sample (50 mg) DSC	160.14 ± 4.6
401.9 K, Crystal 3, Small sample (50 mg) DSC	160.47 ± 5
404.4 K, Crystal 3, Small sample (50 mg) DSC	161.3 ± 5
406.9 K, Crystal 3, Small sample (50 mg) DSC	161.3 ± 5
409.4 K, Crystal 3, Small sample (50 mg) DSC	161.3 ± 5
410 K, Crystal 3, Small sample (50 mg) DSC	161.72 ± 4.7
411.9 K, Crystal 3, Small sample (50 mg) DSC	162.13 ± 5
414.4 K, Crystal 3, Small sample (50 mg) DSC	162.13 ± 5
416.9 K, Crystal 3, Small sample (50 mg) DSC	162.96 ± 5
419.4 K, Crystal 3, Small sample (50 mg) DSC	162.96 ± 5
420 K, Crystal 3, Small sample (50 mg) DSC	163.13 ± 4.7
421.9 K, Crystal 3, Small sample (50 mg) DSC	162.96 ± 5
424.4 K, Crystal 3, Small sample (50 mg) DSC	163.8 ± 5
426.9 K, Crystal 3, Small sample (50 mg) DSC	163.8 ± 5
429.4 K, Crystal 3, Small sample (50 mg) DSC	164.63 ± 5
430 K, Crystal 3, Small sample (50 mg) DSC	164.54 ± 4.7
431.9 K, Crystal 3, Small sample (50 mg) DSC	164.63 ± 5
434.4 K, Crystal 3, Small sample (50 mg) DSC	165.46 ± 5
436.9 K, Crystal 3, Small sample (50 mg) DSC	165.46 ± 5
439.4 K, Crystal 3, Small sample (50 mg) DSC	166.29 ± 5
440 K, Crystal 3, Small sample (50 mg) DSC	165.96 ± 4.7
441.9 K, Crystal 3, Small sample (50 mg) DSC	166.29 ± 5
444.4 K, Crystal 3, Small sample (50 mg) DSC	167.12 ± 5
446.9 K, Crystal 3, Small sample (50 mg) DSC	167.12 ± 5
449.4 K, Crystal 3, Small sample (50 mg) DSC	167.12 ± 5
450 K, Crystal 3, Small sample (50 mg) DSC	167.45 ± 4.8
